Measurements: patent US9578880B2, “Acetyl co-enzyme A carboxylase herbicide resistant plants” (Colorado Wheat Research Foundation, Inc., priority 2011, dated 2017)

What was measured:
[1] = system: non-mutant Hatcher winter wheat (Accession 0); experiment: Cross-resistance study, plant survival after other ACCase herbicides (non-mutant check); assay type: in vivo, Triticum aestivum L.; conditions: Accession 0 (non-mutant check); clethodim 65, sethoxydim 264, fluazifop 361 g ai ha^-1, clethodim + 10.5 g ai ha^-1 quizalofop; 28 DAT
Protocol: (§1) A cross-resistance study was conducted within the ACCase herbicide mode of action using herbicides normally lethal to wheat. Clethodim, sethoxydim, and fluazifop were used at rates of 65, 264, and 361 g ai ha^−1, plus a treatment of clethodim and 10.5 g ai ha^−1 quizalofop. Seven DAT the tops of plants were cut off above the newest above-ground growing point. Binomial evaluation of plant survival was performed 28 DAT. Tolerance of quizalofop mutants to clethodim and sethoxydim was low (Table 1). The presence of any cross tolerance presents evidence that combining multiple homologous resistant ACCase genes into a single plant could lead to resistance to additional herbicides. At this stage only a third of the total ACCase in the plant would have a mutation and contain tolerance to ACCase inhibitors if the mutation is target-site-based.

[2] = system: quizalofop tolerant mutant wheat accessions; experiment: Cross-resistance study, plant survival after other ACCase herbicides (quizalofop tolerant mutants); assay type: in vivo, Triticum aestivum L.; conditions: 28 DAT
Protocol: as §1

[3] = system: quizalofop-tolerant wheat accessions vs non-mutant Hatcher wheat; experiment: Visual evaluation of injury to quizalofop; assay type: in vivo, Triticum aestivum L.; conditions: 21.05 g ai ha^-1; 28 DAT; nearly all of 18 quizalofop-tolerant accessions
Protocol: 18 quizalofop-tolerant accessions were treated with 21.05 g ai ha^−1 quizalofop, a discriminating dose based on previous studies. Plants were evaluated 28 days after treatment (DAT) for visible injury to quizalofop on a scale of 0 to 100%, with 0 being no injury and 100 being complete desiccation. Nearly all accessions evaluated in this study appeared more tolerant to quizalofop than non-mutant Hatcher wheat (FIG. 5). The accessions contained few completely dead plants, with the exception of the one accession not different than the background.

[4] = system: ACCase of non-mutagenized Hatcher winter wheat; experiment: In-vitro ACCase enzyme assay; assay type: biochemical, Triticum aestivum L.; conditions: 0.1, 1, 10, 100 μM
Protocol: (§2) An in-vitro enzyme assay was conducted to observe ACCase in conjunction with quizalofop directly to determine if the presence of ACCase mutations decreases the ability of herbicides to inhibit ACCase activity. Four quizalofop concentrations of 0.1, 1, 10, and 100 μM were included in the assay along with a non-treated control. The experiment included four accessions which included a representative from the three mutations detected and non-mutagenized wheat. […] Calculated at the I25 level, the resistant to susceptible value for the A genome was 4.57, the B genome was 3.57 and the D genome was 10.86.

[5] = system: ACCase, A genome nucleotide substitution (Ala2004Val); experiment: In-vitro ACCase enzyme assay; assay type: biochemical, Triticum aestivum L.
Protocol: as §2

[6] = system: ACCase, B genome nucleotide substitution (Ala2004Val); experiment: In-vitro ACCase enzyme assay; assay type: biochemical, Triticum aestivum L.
Protocol: as §2

[7] = system: ACCase, D genome nucleotide substitution (Ala2004Val); experiment: In-vitro ACCase enzyme assay; assay type: biochemical, Triticum aestivum L.; conditions: for ACCase tolerance compared with background: D genome substitution
Protocol: as §2

[8] = Accession 1, clethodim 65, sethoxydim 264, fluazifop 361 g ai ha^-1, clethodim + 10.5 g ai ha^-1 quizalofop

Row | Structure (SMILES) | survival after application of ACCase herbicide [1] [%] | survival after application of ACCase herbicide [2, 8] [%] | survival after application of ACCase herbicide ([2]; Accession 2, same rates) [%] | survival after application of ACCase herbicide ([2]; Accession 3, same rates) [%] | survival after application of ACCase herbicide ([2]; Accession 4, same rates) [%] | survival after application of ACCase herbicide ([2]; Accession 5, same rates) [%] | survival after application of ACCase herbicide ([2]; Accession 6, same rates) [%] | survival after application of ACCase herbicide ([2]; Accession 7, same rates) [%] | survival after application of ACCase herbicide ([2]; Accession 8, same rates) [%] | survival after application of ACCase herbicide ([2]; Accession 9, same rates) [%] | survival after application of ACCase herbicide ([2]; Accession 10, same rates) [%] | survival after application of ACCase herbicide ([2]; Accession 11, same rates) [%] | survival after application of ACCase herbicide ([2]; Accession 12, same rates) [%] | survival after application of ACCase herbicide ([2]; Accession 13, same rates) [%] | survival after application of ACCase herbicide ([2]; Accession 14, same rates) [%] | survival after application of ACCase herbicide ([2]; Accession 15, same rates) [%] | survival after application of ACCase herbicide ([2]; Accession 16, same rates) [%] | survival after application of ACCase herbicide ([2]; Accession 17, same rates) [%] | also measured
1 | CC(Oc1ccc(Oc2ccc(C(F)(F)F)cn2)cc1)C(=O)O (stereo not shown) [Fluazifop, fluazifop] | 0 | 0 | 0 | 0 | 0 | 0 | 0 | 0 | 0 | 0 | 0 | 0 | 0 | 0 | 0 | 0 | 0 | 0 | –
2 | CC(Oc1ccc(Oc2cnc3cc(Cl)ccc3n2)cc1)C(=O)O (stereo not shown) [quizalofop] | – | – | – | – | – | – | – | – | – | – | – | – | – | – | – | – | – | – | visible injury, tolerance of accessions compared with non-mutant Hatcher wheat [3]: more tolerant; sensitivity of ACCase compared with the mutant accessions [4]: greater sensitivity; ACCase tolerance compared with background ([5]; 100 μM, A genome substitution): higher than background tolerance; resistant to susceptible value calculated at the I25 level ([5]; A genome mutant vs non-mutagenized wheat): 4.57; ACCase tolerance compared with background ([6]; 10 μM, B genome substitution): higher than background levels of tolerance; resistant to susceptible value calculated at the I25 level ([6]; B genome mutant vs non-mutagenized wheat): 3.57; ACCase tolerance compared with background ([7]; 10 μM): higher than background levels of tolerance; ACCase tolerance compared with background ([7]; 100 μM): higher than background tolerance; resistant to susceptible value calculated at the I25 level ([7]; D genome mutant vs non-mutagenized wheat): 10.86
3 | CCSC(C)CC1CC(=O)C(/C(CC)=N/OC/C=C/Cl)=C(O)C1 (stereo not shown) [Clethodim, clethodim] | 0 | 10 | 0 | 0 | 0 | 0 | 0 | 0 | 25 | 17 | 0 | 0 | 17 | 0 | 0 | 0 | 0 | 0 | –
4 | CCC/C(=N\OCC)C1=C(O)CC(CC(C)SCC)CC1=O (stereo not shown) [Sethoxydim, sethoxydim] | 0 | 0 | 0 | 0 | 0 | 0 | 0 | 0 | 0 | 0 | 0 | 8 | 8 | 0 | 0 | 0 | 0 | 0 | Tolerance of quizalofop mutants (cross-resistance) ([2]; clethodim 65, sethoxydim 264 g ai ha^-1): low
